The values below come from paper PMC3758034, “New Insight into the SAR of Pyrimido [4,5-b][1,4] Benzothiazines as 15-lipoxygenase Inhibitors” (Iranian Journal of Basic Medical Sciences, 2013).

SMILES strings stand for the structures.

The test has as its target soybean 15-lipoxygenase (SLO) (Glycine max, UniProt P08170). As to the kind of experiment: SLO screening assay (spectrophotometric MBTH-DMAB peroxide formation method, 598 nm). Type of test: biochemical. The conditions noted are these: pH = 8.3 versus pH = 7.0. How it is done:
Linoleic acid and two assay solutions (A and B) were prepared in advance. Solution A was 50 mM DMAB in a l00 mM phosphate buffer (pH 7.0). Solution B was a mixture of l0 mM MBTH (3 mL), hemoglobin (5 mg/mL, 3 mL) in 50 mM phosphate buffer at pH 5.0 (25 mL). A linoleic acid solution was prepared by mixing 5 mg of linoleic acid with 0.5 mL ethanol and then diluting with KOH 100 mM to a final volume of 5 mL. […] A control test was done with the same volume of ethanol. After the pre-incubation, linoleic acid solution (50 µL) was added to start the peroxidation reaction, and, 7 min later, solution A (270 µL) and then solution B (130 µL) was added to start the color formation. 5 min later, 200 µL of a 2% SDS solution was added to terminate the reaction. The absorbance at 598 nm was compared with control test. The IC50 results are outlined in Table 1.
It is interesting to note that the aforementioned amino acids with the exception of Val769 and Phe576 are conserved ([18], [19]). […] The inhibitory activity of compounds 1a-f, 2a-f towards SLO enzyme was determined by measuring the amount of peroxide formation. In this method, with the help of a spectrophotometer and by using a mixture of MBTH (3-methyl-2-benzothiazolonhydrazone) and DMAB (3-dimethylaminobenzoic acid) indicators in the presence of hemoglobin at the wavelength of 598 nm, the peroxide concentration was determined ([16]).

Sequence of soybean 15-lipoxygenase (SLO) (P08170 whole entry): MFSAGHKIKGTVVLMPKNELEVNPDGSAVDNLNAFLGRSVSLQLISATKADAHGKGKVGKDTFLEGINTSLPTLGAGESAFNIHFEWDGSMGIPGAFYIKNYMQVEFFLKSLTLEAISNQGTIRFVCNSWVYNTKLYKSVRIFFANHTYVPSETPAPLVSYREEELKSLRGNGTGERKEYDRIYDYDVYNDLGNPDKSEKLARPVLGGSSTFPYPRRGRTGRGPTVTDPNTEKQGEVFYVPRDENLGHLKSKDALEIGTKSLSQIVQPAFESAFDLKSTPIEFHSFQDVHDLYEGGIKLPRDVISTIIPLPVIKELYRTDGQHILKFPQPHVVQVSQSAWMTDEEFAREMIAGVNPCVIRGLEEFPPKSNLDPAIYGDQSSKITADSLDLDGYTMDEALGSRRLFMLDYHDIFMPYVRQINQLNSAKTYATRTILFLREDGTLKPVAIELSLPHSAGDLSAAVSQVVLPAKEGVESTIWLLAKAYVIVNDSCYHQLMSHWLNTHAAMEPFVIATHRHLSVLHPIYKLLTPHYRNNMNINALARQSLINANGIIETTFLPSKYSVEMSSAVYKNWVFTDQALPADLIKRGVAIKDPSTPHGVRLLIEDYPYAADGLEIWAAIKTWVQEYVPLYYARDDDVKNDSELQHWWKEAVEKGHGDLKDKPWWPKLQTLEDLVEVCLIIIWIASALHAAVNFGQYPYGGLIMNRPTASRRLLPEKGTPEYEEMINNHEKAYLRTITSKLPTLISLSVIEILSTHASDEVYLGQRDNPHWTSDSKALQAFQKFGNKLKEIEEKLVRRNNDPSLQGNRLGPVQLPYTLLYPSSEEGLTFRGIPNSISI

Consider `CC1CCN(c2ncc3c(n2)Sc2ccccc2N3)CC1` [1c], for which the “IC50 at higher pH” value is “nearly unchanged”.
For `Cc1nc(N2CCC(C)CC2)nc2c1Nc1ccccc1S2` [2c], the “IC50 at higher pH” value was “nearly unchanged”.
